According to US7795305B2, “CDDO-compounds and combination therapies thereof” (Board of Regents, The University of Texas System, priority 2000, dated 2010):

Key:
melanoma xenografts = details: oral 10-30 mg/kg daily for 3 wk or 10 mg/kg injected in the tumor; cited from earlier work
D9 cells, vector control = assay: Annexin V / cell number in D9 vector control cells; type: cell-based; details: 3 μM (CDDO: 5 hrs)
Experimental: (§1) Annexin V staining. Cells were washed in phosphate-buffered saline (PBS) and resuspended in 100 μl of binding buffer containing Annexin V (Roche Diagnostic Corporation, Indianapolis, Ind.). Cells were analyzed by flow cytometry after the addition of propidium iodide (PI). Annexin V binds to those cells that express phosphatidylserine on the outer layer of the cell membrane, and PI stains the cellular DNA of those cells with a compromised cell membrane. This allows for live cells (unstained with either fluorochrome) to be discriminated from apoptotic cells (stained only with annexin V) and necrotic cells (stained with both annexin and PI).
(§2) To characterize the correlation between PPARγ and caspase activation, caspase-3 levels in D9 cells transfected with wt-PPARγ were analyzed. Six different single cell-derived clones were treated with 3 μM CDDO or vehicle controls for 5 hrs. Caspase-3 cleavage was analyzed by Western blot. A decrease in pro-caspase-3 with appearance of the cleaved product was readily observed in all clones. The degree of cleavage was higher in PPARγ-transfected than in vector control cells that express endogenous PPARγ. […] These changes correlated with plasma membrane changes: vector control=47.0% annexin V-positive cells; wt-PPARγ-transfected cells=73.3±1.1% annexin V (+), n=6. […] PPARγ-transfected cells were also more sensitive to PPARγ-ligand 15d-PGJ2 (41.00% vs 16.0% annexin (+) cells at 3 μM).
To characterize the correlation between PPARγ and caspase activation, caspase-3 levels in D9 cells transfected with wt-PPARγ were analyzed. Six different single cell-derived clones were treated with 3 μM CDDO or vehicle controls for 5 hrs. Caspase-3 cleavage was analyzed by Western blot. A decrease in pro-caspase-3 with appearance of the cleaved product was readily observed in all clones. The degree of cleavage was higher in PPARγ-transfected than in vector control cells that express endogenous PPARγ. […] These changes correlated with plasma membrane changes: vector control=47.0% annexin V-positive cells; wt-PPARγ-transfected cells=73.3±1.1% annexin V (+), n=6. […]

HL-60 cells [1] = assay: Differentiation by CD11b/CD14 flow cytometry; type: cell-based, human; details: 7 days
[2] = tested on: wt-PPARγ-transfected D9 cells; assay: Annexin V / cell number in wt-PPARγ-transfected D9 cells; type: cell-based; details: 3 μM (CDDO: 5 hrs, n=6)
Experimental: as §1, §2
as §2, with “(41.0%” for “(41.00%”
The sensitivity of leukemic cells that overexpress PPARγ to CDDO-induced killing was tested. Vector control (pcDNA) or wt-PPARγ-transfected D9 cells (2 different clones) were treated 0.2 μM of CDDO for 48 hrs. Cell viability was assessed by cell count after Trypan blue exclusion, and apoptosis determined by PS/annexin V/Propidium Iodide (PI) flow cytometry. Leukemic cells transfected with PPARγ expressed 2.8-3.7-fold higher amounts of protein compared with vector controls. […] Importantly, CDDO increased PPARγ expression in both, vector control and transfected cells. […]

primary AML samples = assay: Annexin V staining of primary AML samples exposed to PPARγ ligands; type: cell-based, human; details: 72 hrs; 15d-PGJ2 5 μM; BRL49653, L-805645, GW347845X 25 μM
Experimental: as §1

leukemic cell lines = assay: Proliferation of leukemic cell lines (cell count and 3H incorporation); type: cell-based; details: read-out: IC50, proliferation of leukemic cells
HL-60 cells [3] = details: 15d-PGJ2 at 3 μM, BRL49653 at 5 μM (Tontonoz et al., 1998); cited from earlier work
HL-60 cells [4] = assay: Viable cell count of leukemic cells in suspension culture (Trypan blue); type: cell-based, human; details: read-out: concentration required for 50% inhibition of HL-60 cells; PPARγ ligands compared to CDDO
Experimental: Suspension culture of leukemic cells. Leukemic cell lines were cultured at a density of 3.0×10^5 cells/mL, and AML mononuclear cells at 5×10^5 cells/mL in the presence or absence of indicated concentrations of CDDO-Me. Appropriate amounts of DMSO (final concentration<0.05%) was included as a control. For cytotoxicity studies, 1 μM ara-C was added to the cultures.
CDDO. […] The percentage of proliferating cells were analyzed by FCM.
CDDO-Me. […] Mechanism of growth inhibition was analyzed on cell cycle and apoptosis in HL-60 cells.

HL-60 cells [5] = details: 15d-PGJ2 at 3 μM, BRL49653 at 5 μM (Tontonoz et al., 1998); cited from earlier work; remark: listed apart in the source
HL-60 cells [6] = assay: Differentiation by CD11b/CD14 flow cytometry; type: cell-based, human; details: 7 days, concentration 1 (column head M)
Experimental: Immunophenotyping. The PE-conjugated anti-CD11b, FITC-conjugated anti-CD14 monoclonal antibody (mAb) (Becton Dickinson) and PE-conjugated anti-CD95 mAb (PharMingen) were used at a 1/10 dilution.
Enhancement in cellular differentiation using combinations of CDDO with ATRA were tested. […] Cell differentiation was analyzed by flow cytometry (CD14/CD11b staining). […] These experiments were repeated. […]
Finally, the inventors examined if CDDO-Me combined with ATRA would enhance differentiation. […] […] Next, combined treatment with CDDO-Me and RXR-specific ligand were tested for potentiation of anti-leukemic effects.

Row | SMILES | growth of melanoma xenografts in vivo (melanoma xenografts) | annexin V-positive cells (D9 cells, vector control) [%] | CD11b % (HL-60 cells [1]; 10 μM (15d-PGJ2 column head prints M)) [%] | CD11b % (HL-60 cells [1]; concentration 3 (column head M)) [%] | CD11b % (HL-60 cells [1]; concentration 5 (column head M)) [%] | annexin V (+) cells [2] [%] | annexin-V-positive cells (primary AML samples) [%] | IC50 (leukemic cell lines) [µM] | monocytic differentiation of HL-60 cells (HL-60 cells [3]) | IC50 (HL-60 cells [4]) [µM] | killing of HL-60 cells (HL-60 cells [5]) | CD11b % (HL-60 cells [6]) [%]
1 | O=C(O)c1ccc2cc(-c3ccc(O)c(C45CC6CC(CC(C6)C4)C5)c3)ccc2c1 [CD437] | caused growth inhibition of melanoma xenografts | – | – | – | – | – | – | – | – | – | – | –
2 | CCCCC/C=C/C=C1/C(=O)C=C[C@@H]1C/C=C\CCCC(=O)O [15d-PGJ2, 15-deoxyΔ^12,14PGJ2] | – | 16.0 | 88.9 | 49.4 | 83.9 | 41.0 | 27.7 | 5 to 10 | induce monocytic differentiation | 5 | no killing | 34.1
